Measured values: publication PMC12677653, “Inhibition of Tumor Lipogenesis and Growth by Peptide‐Based Targeting of SREBP Activation” (Advanced Science, 2025)

Columns and labels:
Format in all cases: cell-based, human
[1] = system: SREBP1 activity; experiment: SRE luciferase assay; details: Huh7 cells, peptide 15 µM 1 h, IGF1 100 ng/mL 14 h, normalized to β-galactosidase, n = 3
[2] = system: SREBP1/SREBP2 target genes; experiment: Quantitative PCR of SREBP target genes in Huh7 cells; details: peptide 15 μM, IGF1 100 ng/mL 10 h, qPCR, n = 3
Protocol: Figure 1 The Insig1/2 loop 1 peptide binds to S90‐phosphorylated PCK1 and blocks PCK1‐mediated SREBP activation and tumor cell proliferation. Immunoblotting analyses were performed using the indicated antibodies; representative results from three independent experiments are shown (IP, immunoprecipitation; WB, western blot). a) Huh7 cells expressing various Insig1 (top) or Insig2 (bottom) truncation mutants were treated with or without IGF1 (100 ng mL^−1) for 1 h. b,c) Biolayer interferometry assays (Sartorius Octet) were employed to measure the binding affinity of Insig1/2 loop 1 peptide to GST‐PCK1 or GST‐PCK1 pS90 proteins. Data represent three independent experiments. d) Flag‐PCK1‐expressing Huh7 cells were pretreated with Insig1/2 loop 1 peptide (15 µM) for 1 h before IGF1 (100 ng mL^−1) stimulation. e) Huh7 cells were pretreated with low (7.5 µM) or high (15 µM) concentrations of Insig1/2 loop 1 peptide for 1 h before IGF1 (100 ng mL^−1) stimulation. f) Huh7 cells transiently transfected with β‐galactosidase and SRE‐driven luciferase reporter vectors were pretreated with Insig1/2 loop 1 peptide (15 µM) for 1 h, followed by stimulation with or without IGF1 (100 ng mL^−1) for 14 h. SRE luciferase activity was normalized to β‐galactosidase activity. Data represent the mean ± SD (n = 3). Statistical significance was determined by one‐way analysis of variance (ANOVA). g) Following pretreatment with Insig1/2 loop 1 peptide (15 µM) and IGF1 stimulation (100 ng mL^−1, 8 h), Huh7 cells were subjected to immunofluorescence analysis (scale bar: 10 µm). h) Quantitative PCR analysis of SREBP1 target gene GPAM in Huh7 cells pretreated with Insig1/2 loop 1 peptide (15 µM) and stimulated with IGF1 (100 ng mL^−1) for 10 h. Data represent the mean ± SD (n = 3). Statistical significance was determined by one‐way analysis of variance (ANOVA). i) Quantitative PCR analysis of SREBP1 target gene FASN in Huh7 cells pretreated with Insig1/2 loop 1 peptide (15 µM) and stimulated with IGF1 (100 ng mL^−1) for 10 h. Data represent the mean ± SD (n = 3). Statistical significance was determined by one‐way analysis of variance (ANOVA). j) Intracellular triglyceride (TG) content was quantified in Huh7 cells pretreated with Insig1/2 loop 1 peptide (25 µM) and stimulated with IGF1 (100 ng mL^−1) for 24 h. […] Statistical significance was determined by one‐way analysis of variance (ANOVA). k) Cell proliferation was assessed by automated cell counting after 72 h of IGF1 stimulation (100 ng mL^−1) in Huh7 cells pretreated with Insig1/2 loop 1 peptide (25 µM) for 1 h. […] Statistical significance was determined by one‐way analysis of variance (ANOVA). l) FLAG‐Insig1, Flag‐Insig1 S207A or FLAG‐ Insig1 S207D was expressed in Huh7 cells with depletion of Insig1 by expressing Insig1 shRNA. […]

[3] = system: Huh7 cells; experiment: Triglyceride (TG) detection assay, Huh7; details: peptide 25 µM, IGF1 100 ng/mL 24 h, n = 3
Protocol: Figure 1 The Insig1/2 loop 1 peptide binds to S90‐phosphorylated PCK1 and blocks PCK1‐mediated SREBP activation and tumor cell proliferation. Immunoblotting analyses were performed using the indicated antibodies; representative results from three independent experiments are shown (IP, immunoprecipitation; WB, western blot). a) Huh7 cells expressing various Insig1 (top) or Insig2 (bottom) truncation mutants were treated with or without IGF1 (100 ng mL^−1) for 1 h. b,c) Biolayer interferometry assays (Sartorius Octet) were employed to measure the binding affinity of Insig1/2 loop 1 peptide to GST‐PCK1 or GST‐PCK1 pS90 proteins. […] Statistical significance was determined by one‐way analysis of variance (ANOVA). g) Following pretreatment with Insig1/2 loop 1 peptide (15 µM) and IGF1 stimulation (100 ng mL^−1, 8 h), Huh7 cells were subjected to immunofluorescence analysis (scale bar: 10 µm). h) Quantitative PCR analysis of SREBP1 target gene GPAM in Huh7 cells pretreated with Insig1/2 loop 1 peptide (15 µM) and stimulated with IGF1 (100 ng mL^−1) for 10 h. […] Statistical significance was determined by one‐way analysis of variance (ANOVA). i) Quantitative PCR analysis of SREBP1 target gene FASN in Huh7 cells pretreated with Insig1/2 loop 1 peptide (15 µM) and stimulated with IGF1 (100 ng mL^−1) for 10 h. […]

[4] = system: Hep3B cells; experiment: Triglyceride (TG) detection assay, Hep3B; details: peptide 25 μM, IGF1 100 ng/mL 24 h, n = 3
Protocol: Cells were harvested and processed for triglyceride (TG) quantification using the Amplex Red Triglyceride Assay Kit (Beyotime, Catalog No. S0129S) according to the manufacturer's instructions. Briefly, collect 1 million cells and add 200 µL of isopropanol. Centrifuge at 12 000 × g for 3–5 min at 4 °C, and collect the supernatant for subsequent analysis. Dilute the supernatant tenfold with assay buffer, and then add 50 µL of the diluted sample to a 96‐well black plate, add 2 µL of lipase, and mix thoroughly. Incubate at 37 °C for 20 min. Then, add 50 µL of the triglyceride detection working solution and mix well, incubate at 37 °C for 60 min in the dark. Set the excitation wavelength to 560 nm and the emission wavelength to 590 nm to measure the fluorescence intensity.
f) Intracellular triglyceride (TG) content was quantified in Hep3B cells pretreated with Insig1/2 loop 1 peptide (25 μM) and stimulated with IGF1 (100 ng ml⁻¹) for 24 h.

[5] = system: Huh7 cells; experiment: Cell proliferation, Huh7; details: peptide 25 µM 1 h, IGF1 100 ng/mL 72 h, automated cell counting, n = 3

For “RKKRRQRRRLYPCIDSHLGEPHKFKRE [Insig1/2 loop 1 peptide]”, the “SREBP1 activity (SRE luciferase)” value [1] was “markedly inhibited”, the “SREBP2-mediated expression of HMGCS1” value [2] was “suppressed” and the “SREBP2-mediated expression of LDLR” value [2] was “suppressed”. The “expression of FASN” value [2] was “markedly inhibited”, the “expression of GPAM” value [2] was “markedly inhibited” and the “IGF1-induced increase in triglycerides (TGs)” value [3] was “reduced”. The “IGF1-induced increase in triglycerides (TGs)” value [4] was “reduced” and the “IGF1-induced increase in proliferation” value [5] was “inhibited”.
